Data: article PMC5677366, “Cyclic di-GMP differentially tunes a bacterial flagellar motor through a novel class of CheY-like regulators” (eLife, 2017)
Entries after “also recorded” stand apart in the source; their conditions may differ.

What was measured:
His-CheY = molecular target: T1, His-CheY (Escherichia coli, UniProt P0AE67); assay: MST; type: binding, E. coli
T1 construct: made in house; host or cells: E. coli BL21 (DE3)
Protocol: (§1) MST experiments were carried out in a Monolith NT.115 device using standard treated capillaries (NanoTemper Technologies). Fluorescence changes resulting from thermophoresis were recorded using blue channel optics of the instrument (λex = 470 ± 15 nm, λem = 520 ± 10 nm) for the 30 s period of infrared laser heating at 40% of maximum laser power followed by a 5 s of cooling period. Measurements were performed in a buffer containing 50 mM Tris-HCl, pH 8.0, 100 mM NaCl, 5 mM MgCl2, 1 mM DTT and 0.1% Tween 20. 2'-O-(6-[Fluoresceinyl]aminohexylcarbamoyl)-cyclic diguanosine monophosphate (2’fluo-AHC-c-di-GMP, Biolog, Bremen, Germany) was added to probe the binding affinity of CleD domains. A 16-point 1:1 serial dilution series of proteins was titrated against a fixed concentration (60 nM) of 2’fluo-AHC-c-di-GMP. Data were evaluated in the program ProFit (Quansoft, Zurich, Switzerland) and fitted using the Hill equation.

[1] = molecular target: EcCheY-ARR with R156A mutant ARR (Caulobacter vibrioides, UniProt Q9A3V2, R156A); assay: MST; type: binding, E. coli; details: read-out: apparent Kd
Chain of EcCheY-ARR with R156A mutant ARR (Q9A3V2 entry or part of it R156A): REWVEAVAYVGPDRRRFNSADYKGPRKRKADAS
Chain of EcCheY-ARR with R156A mutant ARR (P0AE67 2-129, further chain): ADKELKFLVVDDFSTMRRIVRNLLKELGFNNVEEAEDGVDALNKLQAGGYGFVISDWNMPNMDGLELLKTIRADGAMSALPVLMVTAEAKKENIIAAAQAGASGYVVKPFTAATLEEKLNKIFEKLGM
Protocol: as §1

His-SUMO = molecular target: T2, His-SUMO (Saccharomyces cerevisiae, UniProt Q12306); assay: MST; type: binding
T2 construct: made in house; host or cells: E. coli BL21 (DE3)
T2 sequence (Q12306 whole entry): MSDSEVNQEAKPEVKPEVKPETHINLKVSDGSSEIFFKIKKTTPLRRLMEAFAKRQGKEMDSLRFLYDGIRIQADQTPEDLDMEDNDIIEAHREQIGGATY
Protocol: as §1

[2] = molecular target: EcCheY-ARR (wild-type ARR of CleD fused to E. coli CheY) (Caulobacter vibrioides, UniProt Q9A3V2); assay: MST; type: binding; details: read-out: apparent Kd
Chain of EcCheY-ARR (wild-type ARR of CleD fused to E. coli CheY) (P0AE67 2-129): as the sequence (P0AE67 2-129, further chain) above
Chain of EcCheY-ARR (wild-type ARR of CleD fused to E. coli CheY) (Q9A3V2 entry or part of it): as the sequence (Q9A3V2 entry or part of it R156A) above
Protocol: as §1

His-CleD-rec (aa 19–141) = His-CleD-rec (aa 19–141) (Caulobacter vibrioides, UniProt Q9A3V2); assay: MST; type: binding, Caulobacter crescentus
Chain of His-CleD-rec (aa 19–141) (Q9A3V2 entry or part of it): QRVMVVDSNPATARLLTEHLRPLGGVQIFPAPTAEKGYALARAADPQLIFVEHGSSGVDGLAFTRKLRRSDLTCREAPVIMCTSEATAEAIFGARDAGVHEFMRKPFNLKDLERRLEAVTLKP
Protocol: as §1

[3] = system: isolated ARR of CleA fused to His-SUMO; assay: MST; type: binding, Caulobacter crescentus
Protocol: as §1

His-SUMO R169A ARRCleD = His-SUMO R169A ARRCleD (Caulobacter vibrioides, UniProt Q9A3V2, R169A); assay: MST; type: binding, Caulobacter crescentus
Chain of His-SUMO R169A ARRCleD (Q9A3V2 entry or part of it R169A): as the sequence (Q9A3V2 entry or part of it R156A) above
Protocol: as §1

His-SUMO R156A ARRCleD = assay: MST; type: binding, Caulobacter crescentus
Protocol: as §1

His-CleD (aa 19–262) = His-CleD (aa 19–262) (Caulobacter vibrioides, UniProt Q9A3V2); assay: MST; type: binding, Caulobacter crescentus; details: 60 nM ligand; variant lacking part of the CTR
Chain of His-CleD (aa 19–262) (Q9A3V2 entry or part of it): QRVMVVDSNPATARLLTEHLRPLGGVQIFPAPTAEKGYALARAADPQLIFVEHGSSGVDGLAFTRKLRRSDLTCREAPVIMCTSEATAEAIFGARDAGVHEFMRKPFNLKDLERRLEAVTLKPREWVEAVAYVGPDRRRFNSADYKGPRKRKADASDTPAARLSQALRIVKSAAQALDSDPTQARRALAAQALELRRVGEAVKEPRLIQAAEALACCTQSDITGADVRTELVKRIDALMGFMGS
Protocol: as §1

[4] = molecular target: His-CleD-rec-ARR (aa 19–174) (Caulobacter vibrioides, UniProt Q9A3V2); assay: MST; type: binding, Caulobacter crescentus
Chain of His-CleD-rec-ARR (aa 19–174) (Q9A3V2 entry or part of it): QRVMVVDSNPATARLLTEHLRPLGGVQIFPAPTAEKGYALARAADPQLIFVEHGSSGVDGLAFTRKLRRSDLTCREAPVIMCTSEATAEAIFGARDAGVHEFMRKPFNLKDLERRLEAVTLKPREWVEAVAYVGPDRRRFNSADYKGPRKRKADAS
Protocol: as §1

His-CleD (aa 19–269) = His-CleD (aa 19–269) (Caulobacter vibrioides, UniProt Q9A3V2); assay: Microscale thermophoresis (MST); type: binding, Caulobacter crescentus
Chain of His-CleD (aa 19–269) (Q9A3V2 entry or part of it): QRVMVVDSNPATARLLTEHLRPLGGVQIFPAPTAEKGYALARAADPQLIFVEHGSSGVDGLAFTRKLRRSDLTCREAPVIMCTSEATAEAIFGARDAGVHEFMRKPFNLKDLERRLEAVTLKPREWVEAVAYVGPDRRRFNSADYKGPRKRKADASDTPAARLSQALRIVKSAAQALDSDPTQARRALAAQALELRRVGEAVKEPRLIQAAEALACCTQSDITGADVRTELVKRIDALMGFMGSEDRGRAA
Protocol: as §1

StrepII-CleD [5] = molecular target: T3, StrepII-CleD (Caulobacter vibrioides, UniProt Q9A3V2); assay: UV cross-linking competition with non-labeled nucleotides; type: binding, Caulobacter crescentus; details: 1 µM StrepII-CleD, 0.25 µM 33P-labelled c-di-GMP
T3 sequence (Q9A3V2 entry or part of it): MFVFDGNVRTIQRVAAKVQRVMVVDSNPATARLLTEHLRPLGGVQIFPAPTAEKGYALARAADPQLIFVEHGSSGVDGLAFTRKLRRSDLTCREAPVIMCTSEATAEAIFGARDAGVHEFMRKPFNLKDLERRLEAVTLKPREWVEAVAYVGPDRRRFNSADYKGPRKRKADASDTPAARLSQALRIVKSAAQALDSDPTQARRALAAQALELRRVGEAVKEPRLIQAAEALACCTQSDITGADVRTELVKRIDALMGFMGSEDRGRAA
Protocol: Synthesis of radiolabeled c-di-GMP using YdeH and UV light-induced cross-linking experiments in conical 96-well plates (Greiner Bio-One) were performed as described recently ([Steiner et al., 2013]; [Christen et al., 2005]). […] As a control BSA was included. For competition experiments unlabeled nucleotides were incubated with the protein for 15 min prior the addition of c-[^33P] -di-GMP. The 96-well plates were then UV-irradiated at 254 nm for 20 min using a Bio-Link crosslinker (Vilber Lourmat, France). After addition of 5 μl loading dye and boiling for 5 min the samples were subjected to SDS-PAGE. Proteins were analyzed by Coomassie staining and autoradiography. Band intensities were quantified using the ImageJ64 software and the data were fitted using GraphPad Prism version 5.04 for Windows (GraphPad Software, San Diego California USA). The Kd was calculated by non-linear regression using the ‘One site – Total binding’ equation.

StrepII-CleD [6] = molecular target: T3, StrepII-CleD; assay: UV cross-linking with radiolabeled c-di-GMP; type: binding, Caulobacter crescentus
Protocol: Synthesis of radiolabeled c-di-GMP using YdeH and UV light-induced cross-linking experiments in conical 96-well plates (Greiner Bio-One) were performed as described recently ([Steiner et al., 2013]; [Christen et al., 2005]). Briefly, 2 μM protein was incubated for 10 min at room temperature with c-[^33P]-di-GMP in a total volume of 20 μl using PBS as buffer. As a control BSA was included. For competition experiments unlabeled nucleotides were incubated with the protein for 15 min prior the addition of c-[^33P] -di-GMP. The 96-well plates were then UV-irradiated at 254 nm for 20 min using a Bio-Link crosslinker (Vilber Lourmat, France). After addition of 5 μl loading dye and boiling for 5 min the samples were subjected to SDS-PAGE. Proteins were analyzed by Coomassie staining and autoradiography. Band intensities were quantified using the ImageJ64 software and the data were fitted using GraphPad Prism version 5.04 for Windows (GraphPad Software, San Diego California USA). The Kd was calculated by non-linear regression using the ‘One site – Total binding’ equation.

His-CleD_R113A-GFP = His-CleD_R113A-GFP (Caulobacter vibrioides, UniProt Q9A3V2, R113A); assay: ITC with R113A mutant; type: binding, Caulobacter crescentus
Protocol: (§2) ITC experiments were performed on a VP-ITC MicroCalorimeter (MicroCal, Northampton, MA, USA). Protein samples, c-di-GMP and buffer (50 mM Tris-HCl, pH 8.0, 100 mM NaCl, 5 mM MgCl2, 1 mM DTT) were degassed for 15 min prior to filling into sample cell and syringe. The sample cell contained 7.4 µM of His-CleD-GFP and the syringe contained 69.7 µM of cdG. The concentrations were determined in a spectrophotometer using a cuvette with 1 cm path length. All experiments were carried out at 10 °C with 30 injections (10 µl each) with a 250 s interval. Stir rate was 300 rpm. The data were evaluated using ITC Data Analysis in ORIGIN (MicroCal) provided by the manufacturer. The area under each peak was integrated and fitted using the built-in one-site model by non-linear least squares regression analysis.

CleD-GFP [7] = molecular target: T4, CleD-GFP (Caulobacter vibrioides, UniProt Q9A3V2); assay: Isothermal titration calorimetry (ITC); type: binding, Caulobacter crescentus; details: ITC at 10°C
Protocol: as §2

CleD-GFP [8] = molecular target: T4, CleD-GFP; assay: 1H-NMR Jump-return imino proton spectra; type: binding, Caulobacter crescentus; details: difference spectrum with and without c-di-GMP, four imino H1 resonances
Protocol: NMR spectra were recorded at 298 K on Bruker DRX 600, and DRX 900 NMR spectrometers equipped with TXI and TCI probe heads, respectively. The one dimensional NMR spectra were recorded with a Jump-return echo sequence ([Sklenár et al., 1987]) optimized for resonances at around 12 ppm. For the complex His-CleD-GFP·c-di-GMP and apo His-CleD-GFP 16384 scans were recorded. The NMR samples were prepared as follows. The sample of apo His-CleD-GFP (30 μM) was prepared in 100 mM NaCl, 20 mM sodium phosphate buffer at pH 6.5, 0.01% NaN3 (w/v), and 5% (v/v) D2O as sample volume of 250 μL. Complex CleD-GFP·c-di-GMP: the ligand was titrated to the apo His-CleD-GFP sample from a 20 mM stock solution in twofold excess.

[9] = system: R156A mutant variant of CleD-GFP; assay: ITC with R156A mutant; type: binding, Caulobacter crescentus
Protocol: as §2

CleD = assay: 1H-15N HSQC NMR of 15N-CleD with FliM peptides; type: binding, Caulobacter crescentus
Protocol: The standard two-dimensional spectra ^1H-^15N HSQC of His-CleD with or without peptides were performed on a ^15N isotope labeled His-CleD. The His-CleD (400 µM) sample was in 20 mM sodium phosphate buffer at pH 7.0, 200 mM NaCl, 1 mM MgCl2, 5 mM 2-Mercaptoethanol, 0.02% NaN3 (w/v), and 5% (v/v) D2O with a sample volume of 270 μL. c-di-GMP was titrated to the protein sample in 2.5-fold excess. The FliM peptide from residue Ala47 to Gly62 contains an additional Trp at the N-terminus to measure concentration and to increase solubility (WASERILNQDEIDSLLG). As the corresponding ID57_WA peptide contains a Trp we used the following sequence ASERILNQDEWASLLG. Both peptides were purchased from JPT Peptide Technologies, and dissolved in 200 mM NaCl, 20 mM sodium phosphate buffer at pH 7.0, 1 mM MgCl2, 5 mM β-Mercaptoethanol, 0.02%NaN3 (w/v), and 5% (v/v) D2O. With homonuclear 2D-TOCSY and 2D-NOESY experiments the peptide proton resonances were assigned. It was confirmed, that both peptides were stable in this buffer and unfolded (data not shown). The spectrum of the purified CleD protein was recorded in the same buffer as the FliM peptides.

T1 sequence (P0AE67 whole entry): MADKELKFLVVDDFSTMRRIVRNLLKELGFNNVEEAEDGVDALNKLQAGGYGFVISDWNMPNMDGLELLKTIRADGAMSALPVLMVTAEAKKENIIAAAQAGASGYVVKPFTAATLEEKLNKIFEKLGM

## 2'-O-(6-[Fluoresceinyl]aminohexylcarbamoyl)-cyclic diguanosine monophosphate [flr-cdG]
His-CheY
  binding (in words): failed to bind
[1]
  Kd: 471 µM
His-SUMO
  binding (in words): not SUMO itself were able to bind flr-cdG
[2]
  Kd: 14.8 µM
His-CleD-rec (aa 19–141)
  dissociation constant relative to full-length protein: 40 fold
His-CleD-rec (aa 19–141); 60 nM ligand
  Kd: 41.7 µM
[3]
  binding (in words): failed to bind
His-SUMO R169A ARRCleD
  reduction of binding relative to wild-type ARR: about 5 fold
His-SUMO R156A ARRCleD
  binding (in words): strongly reduced binding; also recorded: completely abolished
His-CleD (aa 19–262)
  Kd: 1.3 µM
[4]
  dissociation constant relative to full-length protein: 5 fold
[4]; 60 nM ligand
  Kd: 6.2 µM
His-CleD (aa 19–269); 60 nM ligand
  Kd: 1.2 µM
His-CleD (aa 19–269); full-length CleD and variant lacking part of the CTR
  Kd relative to affinities determined for c-di-GMP itself: roughly 10 fold

## Nc1nc2c(ncn2[C@@H]2O[C@H](COP(=O)(O)OP(=O)(O)OP(=O)(O)O)[C@@H](O)[C@H]2O)c(=O)[nH]1 [GTP]
StrepII-CleD [5]
  concentration required for a similar reduction of 33P-labelled c-di-GMP binding, relative to non-labeled c-di-GMP: 1000 fold

## Nc1nc2c(ncn2[C@@H]2O[C@@H]3COP(=O)(O)O[C@H]4[C@@H](O)[C@H](n5cnc6c(=O)[nH]c(N)nc65)O[C@@H]4COP(=O)(O)O[C@H]3[C@H]2O)c(=O)[nH]1 [c-di-GMP, Cyclic di-GMP]
StrepII-CleD [6]
  Kd: 0.212 µM
StrepII-CleD [6]; purified Strep-tagged CleD, radiolabeled c-di-GMP
  binding (in words): high affinity binding in the nanomolar range
His-CleD_R113A-GFP
  Kd: 0.221 µM
His-CleD_R113A-GFP; ITC
  increase of the Kd as compared to wild-type CleD: 3 fold
StrepII-CleD [5]
  competition with labeled probe for binding (in words): effectively compete; also recorded: equimolar amounts of non-labeled c-di-GMP reduced binding
CleD-GFP [7]
  Kd: 0.086 µM
CleD-GFP [8]
  binding stoichiometry: two molecules of c-di-GMP are bound to one CleD protomer; also recorded: one c-di-GMP dimer to one protein monomer
[9]
  binding (in words): completely abolished

## Nc1nc2c(ncn2[C@@H]2O[C@H](COP(=O)(O)O[C@H]3[C@@H](O)[C@H](n4cnc5c(=O)[nH]c(N)nc54)O[C@@H]3COP(=O)(O)O)[C@@H](O)[C@H]2O)c(=O)[nH]1 [pGpG]
StrepII-CleD [5]
  concentration required for a similar reduction of 33P-labelled c-di-GMP binding, relative to non-labeled c-di-GMP: 1000 fold

## ASERILNQDEWASLLG [FliM_ID57WA mutant peptide, FliM residues 47–62 peptide with ID57WA substitution]
CleD; with c-di-GMP
  HSQC spectrum change (in words): indistinguishable from the spectrum recorded for CleD alone

## WASERILNQDEIDSLLG [FliM wild-type peptide, FliM peptide from residue Ala47 to Gly62 with an additional Trp at the N-terminus]
CleD; in the presence of c-di-GMP, peptide in two-fold excess
  number of CleD resonances with shift changes: approximately 10 resonances
CleD; without c-di-GMP
  HSQC spectrum change (in words): indistinguishable from the spectrum recorded for CleD alone
